Test results taken from patent US20250110130A1, “EX VIVO PROTEASE ACTIVATION AND DETECTION” (SunBird Bio, Inc., priority 2021, published 2025).
Non-standard residues stand in square brackets, D forms with d. Primed or numbered codes have the meaning given here. No end group written: not given here. *: point of attachment. CPQ2 = fluorescent quencher, paired with 5-carboxyfluorescein; 5FAM = O=C1OC2(c3ccc(O)cc3Oc3cc(O)ccc32)c2ccc(C(=O)*)cc21; FAM = 5-carboxyfluorescein (fluorescent label); PEG2′ = PEG spacer

Experiments:
[1] = test system: protease activity sensed by Probe #102 (cathepsin L, CTSL) in K2 EDTA plasma; assay: Protease inhibitor profiling of Probe #102 cleavage in NASH and healthy plasma; conditions: for effect of inhibitor on signal, in words: Probe #102, NASH and healthy plasma
Protocol: For this experiment, all plasma samples were prepared individually and diluted 1/10e in PBS with inhibitor added directly to the samples. Inhibitor was prepared at 15× concentration to final. Substrates were diluted in DI water at 18 uM, such that the final concentration on the plate would be 6 uM. All samples were prepared such that their last dilution on the plate would not affect the desired final concentration. 10 ul of each individual sample was pipetted into their corresponding wells, and the plate was then spun down in the centrifuge at 1500 RPM for 30 seconds to coat the bottom of each well with the sample. 5 ul of the 18 uM substrate solution was pipetted into each well being used on a 384 well plate, and then the plate was spun down in the centrifuge at 1500 rpm for 30 seconds. The plate was placed immediately in the plate reader at 37° C. for a 30-minute-long fluorescence kinetic read at 485/535 extended gain.
To assess the proteolytic cleavage pattern of Probe #102, samples were tested using a pool of broad inhibitors for serine, cysteine, threonine, MMP and aspartic protease family members (broad inhibitor) to assess general protease activity, AEBSF for serine proteases, E64 for cysteine proteases, CTSi for broad cathepsin inhibition of cathepsins L, S, K and B, or specific inhibitors for cathepsin K (L00625), for cathepsin L (SID) or cathepsin B (CA074).

MMPs in K2 EDTA plasma = assay: Zinc reactivation of MMPs in human K2 EDTA plasma; assay type: biochemical; conditions: for protease activity recovered by Calcium compared to Zinc: Calcium up to 6 mM vs 1 mM Zinc, plasma
From the text: In this experiment, MMPs are reactivated in K2 EDTA plasma that has been collected with EDTA. EDTA causes chelation of the […] ion and interferes with the stability of the MMPs and has high MMP inhibition activity in vitro. The goal of zinc addition was to reactivate potential MMPs in solution that have been inhibited due to the addition of K2 EDTA.
To reactivate the MMPs in plasma, the EDTA was completely titrated and bound to the Zinc while the excess zinc in the solution was also used as an activating agent for the MMPs. Zinc chloride (Alfa Aesar) was prepared in ddH2O and fully dissolved. The zinc chloride ([…]) solution was then diluted in an assay buffer designed for MMPs. The plasma samples were prepared in the MMP buffer and the plasma samples were combined with the ZnCl solution in a 3:1 ratio. The mixture was incubated on ice after being combined. While the samples were incubating, the related substrates were prepared for analysis. Substrates used in this experiment were Probes #117, 263, 349, and 417. Samples were added to a substrate of interest once the sample incubation was complete. The mixture was spun, and results were read on a Biotek Synergy H1 at Ex/Em=485/535 using extended dynamic range.

MMP2 [2] = target: T1, MMP2 (Homo sapiens, UniProt P08253); assay: Recombinant MMP2 spike-in to human K2 EDTA plasma with Zinc titration; assay type: biochemical; design: host or cells: spiked into human K2 EDTA plasma
T1 sequence (P08253 110-660): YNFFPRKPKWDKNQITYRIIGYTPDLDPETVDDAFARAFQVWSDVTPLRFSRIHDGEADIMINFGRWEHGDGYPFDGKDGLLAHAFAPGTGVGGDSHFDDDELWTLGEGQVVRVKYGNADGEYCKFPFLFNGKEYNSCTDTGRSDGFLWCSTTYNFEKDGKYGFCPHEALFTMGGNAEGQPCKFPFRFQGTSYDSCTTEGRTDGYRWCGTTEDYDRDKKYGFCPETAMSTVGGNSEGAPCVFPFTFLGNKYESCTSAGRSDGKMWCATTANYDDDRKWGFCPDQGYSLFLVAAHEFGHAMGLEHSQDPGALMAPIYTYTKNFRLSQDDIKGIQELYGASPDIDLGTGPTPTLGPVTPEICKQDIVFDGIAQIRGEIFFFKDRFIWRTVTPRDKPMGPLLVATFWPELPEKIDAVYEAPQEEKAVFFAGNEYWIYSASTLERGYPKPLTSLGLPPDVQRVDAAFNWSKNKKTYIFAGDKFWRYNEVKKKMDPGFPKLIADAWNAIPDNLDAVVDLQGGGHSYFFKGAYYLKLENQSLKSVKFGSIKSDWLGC

[3] = test system: carboxylesterase 1, phospholipase A2 and lipoprotein lipase; assay: Spiked recombinant enzymes in human plasma with resorufin oleate as substrate; assay type: biochemical
[4] = test system: protease (caspase) activity in mouse plasma; assay: Ex vivo probe assay in plasma of the Jo2 mouse model of fulminant hepatitis; assay type: biochemical; conditions: mouse plasma 3 hours after Jo2 injection
Protocol: Fulminant hepatitis is induced after injection intraperitoneal of monoclonal antibody anti-CD95 (Jo2, BD biosciences, 4 ug/animal), and mouse plasma samples were collected 3 hours after Jo2 injection.
The comparison with mass spectrometry data also aligns and confirms high concordance with the ex vivo approach, which is reassuring to confirm the existence of a biologically relevant signal.

MMP2 [5] = target: T1, MMP2; assay: Recombinant protease screen of probes; assay type: biochemical; conditions: recombinant MMP2, 1 h fluorescence read
Protocol: (§1) To determine different probes' ability to cleave MMPs and/or DPP4, samples were pipetted into each well in a 384 well plate. […] The plate was centrifuged again, and the plate was then placed into the plate reader for a 1 h fluorescence read.

MMP20 = target: T2, MMP20 (Homo sapiens, UniProt O60882); assay: Recombinant protease screen of probes; assay type: biochemical; conditions: recombinant MMP20, 1 h fluorescence read
T2 sequence (O60882 108-483): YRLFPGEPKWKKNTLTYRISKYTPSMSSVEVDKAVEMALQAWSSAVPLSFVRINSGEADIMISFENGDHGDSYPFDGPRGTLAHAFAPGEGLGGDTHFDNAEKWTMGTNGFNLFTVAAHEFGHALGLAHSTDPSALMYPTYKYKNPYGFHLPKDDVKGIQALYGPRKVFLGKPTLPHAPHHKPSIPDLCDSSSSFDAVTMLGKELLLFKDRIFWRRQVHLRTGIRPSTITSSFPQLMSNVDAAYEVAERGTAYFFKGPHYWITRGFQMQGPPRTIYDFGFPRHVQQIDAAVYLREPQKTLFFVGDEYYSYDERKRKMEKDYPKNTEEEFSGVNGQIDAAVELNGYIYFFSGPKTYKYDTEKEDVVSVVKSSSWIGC
Protocol: as §1

[6] = test system: MMP protease signal in mouse plasma; assay: Zinc reactivation of MMPs in mouse plasma, healthy vs NASH; assay type: biochemical; conditions: for Fold change ratio, Zinc Buffer: Zinc MMP buffer
From the text: To perform this experiment, samples were pipetted into each well of a 384 well plate. […] The plate was kept on ice throughout procedure. […] Then, the place was centrifuged again.
A summary table of the results can be found in Table 4.

MMP13 = MMP13 (Homo sapiens, UniProt P45452); assay: Recombinant protease screen of probes; assay type: biochemical; conditions: recombinant MMP13, 1 h fluorescence read
Protocol: as §1

[7] = test system: protease activity in COVID and healthy plasma; assay: Ex vivo probe assay in COVID and healthy plasma (K2 EDTA and Lithium Heparin); assay type: biochemical; conditions: K2 EDTA samples
DPP4 = DPP4 (Homo sapiens, UniProt P27487); assay: Recombinant protease screen of probes; assay type: biochemical; conditions: recombinant DPP4, 1 h fluorescence read
DPP4, sequence (P27487 whole entry, species assumed): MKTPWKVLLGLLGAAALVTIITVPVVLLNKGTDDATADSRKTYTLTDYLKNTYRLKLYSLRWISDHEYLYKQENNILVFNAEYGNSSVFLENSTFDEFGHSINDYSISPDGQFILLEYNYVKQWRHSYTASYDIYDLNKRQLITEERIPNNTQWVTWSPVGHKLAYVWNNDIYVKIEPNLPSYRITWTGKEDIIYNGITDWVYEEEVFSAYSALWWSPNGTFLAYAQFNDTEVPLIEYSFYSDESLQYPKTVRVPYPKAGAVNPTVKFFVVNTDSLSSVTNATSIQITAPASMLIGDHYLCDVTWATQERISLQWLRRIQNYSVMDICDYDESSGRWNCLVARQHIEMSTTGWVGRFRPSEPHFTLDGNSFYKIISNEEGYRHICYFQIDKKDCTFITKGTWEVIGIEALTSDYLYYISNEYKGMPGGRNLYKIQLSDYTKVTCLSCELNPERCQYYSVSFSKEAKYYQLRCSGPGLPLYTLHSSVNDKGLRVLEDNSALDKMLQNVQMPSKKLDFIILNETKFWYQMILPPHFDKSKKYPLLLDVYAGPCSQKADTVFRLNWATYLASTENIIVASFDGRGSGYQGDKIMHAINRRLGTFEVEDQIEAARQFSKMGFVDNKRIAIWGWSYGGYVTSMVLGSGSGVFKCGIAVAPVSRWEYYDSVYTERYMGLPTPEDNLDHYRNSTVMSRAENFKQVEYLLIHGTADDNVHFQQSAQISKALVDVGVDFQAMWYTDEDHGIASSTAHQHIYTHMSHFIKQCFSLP
Protocol: as §1

Compound: NCCc1ccc(S(=O)(=O)F)cc1 [AEBSF]
- decrease of signal in NASH samples by inhibitor ([1]; Probe #102, NASH plasma): 65%
- decrease of signal in healthy samples by inhibitor ([1]; Probe #102, healthy plasma): 60%

Compound: CCCNC(=O)[C@H]1O[C@@H]1C(=O)N[C@H](C(=O)N1CCC[C@H]1C(=O)O)[C@@H](C)CC [CA074]
- effect of inhibitor on signal, in words [1]: did not significantly decrease signal

Compound: [Ca] [Calcium]
- protease activity recovered by Calcium compared to Zinc (MMPs in K2 EDTA plasma): minimal protease activity is recovered
- protease activity recovered by Calcium compared to Zinc (MMPs in K2 EDTA plasma; listed as calcium): does not show similar activation effects

Compound: O=C([O-])CN(CCN(CC(=O)O)CC(=O)O)CC(=O)[O-].[K+].[K+] [K2 EDTA]
- activity of recombinant MMP2 spiked into human K2 EDTA plasma (MMP2 [2]): completely deactivated

Compound: CC(C)C[C@H](NC(=O)[C@H]1O[C@@H]1C(=O)O)C(=O)NCCCCN=C(N)N [Probe E64, E64]
- effect of inhibitor on signal, in words [1]: decreased NASH signal significantly

Compound: CN1CCN(c2nc(-c3ccc(C(=O)NC4(C(=O)NCC#N)CCCCC4)cc3)cs2)CC1 [Probe L006235]
- effect of inhibitor on signal, in words [1]: did not significantly decrease signal

Compound: [Cl-].[Cl-].[Zn+2] [Zinc, Zinc chloride]
- optimal Zinc concentration (MMPs in K2 EDTA plasma; across all vendors tested, Probe #349): 1 mM
- activity of recombinant MMP2 spiked into human K2 EDTA plasma (MMP2 [2]): capable of reviving the MMP2 activity in plasma

Compound: CCCC(=O)O [butyrate]
- suitability as substrate for detection of enzymes [3]: promising for detection of broad range of enzymes

Compound: Probe #8: Caspase centric probe (5FAM-GVDVADGK(CPQ2)[PEG2′][dK][dK]GC; also: 5-FAM, CPQ2 quencher, PEG2, D-Lys-D-Lys-GC)
- contrast between healthy and Jo2 samples [4]: show contrast that is specific and sensitive to the Jo2 model

Compound: Probe #12: Caspase centric probe (5FAM-GDEVDGK(CPQ2)[PEG2′][dK][dK]GC; also: 5-FAM, CPQ2 quencher, PEG2, D-Lys-D-Lys-GC)
- contrast between healthy and Jo2 samples [4]: show contrast that is specific and sensitive to the Jo2 model

Compound: Probe #117: probe whose peptide linker is SEQ ID No 117 ({FAM}-GAALHNDGK(CPQ2)[PEG2′][dK][dK]-NH2; also: FAM, CPQ2 quencher, PEG2, D-Lys-D-Lys, amide)
- protease sensed by probe (MMP2 [5]): sensed
- protease sensed by probe (MMP20): sensed
- Fold change ratio, Zinc Buffer [6]: 2.11
- Fold change ratio, Normal Buffer [6]: 1.47

Compound: Probe #263: probe whose peptide linker is SEQ ID No 263 ({FAM}-GQKAAWDGK(CPQ2)-NH2; also: FAM, CPQ2 quencher)
- protease sensed by probe (MMP13): sensed
- Fold change ratio, Zinc Buffer [6]: 2.09
- Fold change ratio, Normal Buffer [6]: 1.7

Compound: Probe #409: the SARS CoV2 coronavirus substrate (SARS-COV2 3C protease) (GTSAVLQSGFRKGK; also: 5-FAM, CPQ2 quencher, PEG2-kk-GC)
- contrast between COVID and healthy samples [7]: modest contrast

Compound: Probe #411: probe of Table 1; sensed DPP4 (5FAM-GAAFAGK(CPQ2)[PEG2′][dK][dK]GC; also: 5-FAM, CPQ2 quencher, PEG2, D-Lys-D-Lys-GC)
- protease sensed by probe (DPP4): sensed
- Fold change ratio, Zinc Buffer [6]: 2.52
- Fold change ratio, Normal Buffer [6]: 1.88

Compound: Resorufin oleate
- suitability as substrate for detection of enzymes [3]: promising for detection of broad range of enzymes
